Reference: paper PMC12336439 (Archiv Der Pharmazie, 2025)
Where “and” joins values, the source holds several entries; their conditions need not be identical. Identical values can stand only once. Like-named read-outs stand apart in the source and are kept apart here.

Assays:
USP7 [1] = biological target: T1, USP7 (Homo sapiens, UniProt Q93009); set-up: method as in PMID 40165995; conditions: hit from earlier screen of covalent kinase inhibitor library; cited from earlier work
T1 construct: USP7 catalytic domain (USP7CD) (208‐560); made in house
T1 sequence (Q93009 with tags, fused parts or gaps): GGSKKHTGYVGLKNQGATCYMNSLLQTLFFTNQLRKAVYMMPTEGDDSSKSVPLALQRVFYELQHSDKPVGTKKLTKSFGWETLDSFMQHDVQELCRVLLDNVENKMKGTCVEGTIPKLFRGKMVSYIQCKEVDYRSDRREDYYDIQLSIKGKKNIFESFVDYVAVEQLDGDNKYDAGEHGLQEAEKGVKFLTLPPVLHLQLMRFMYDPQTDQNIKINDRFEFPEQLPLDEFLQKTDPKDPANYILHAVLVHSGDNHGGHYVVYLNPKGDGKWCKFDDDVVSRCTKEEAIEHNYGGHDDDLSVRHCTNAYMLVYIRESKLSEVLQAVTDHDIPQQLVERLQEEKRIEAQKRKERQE

USP7 [2] = biological target: T1, USP7; set-up: method as in PMID 40165995; conditions: 24 h incubation at 20°C, ratio 1:31.25; spectra reported previously; cited from earlier work
USP7asoc [3] = biological target: T2, USP7asoc (Homo sapiens, UniProt Q93009, C300S/C315S/C334S/C478S/C488S/C510S); set-up: method as in PMID 40165995; conditions: 24 h incubation at 20°C, ratio 1:31.25; spectra reported previously; cited from earlier work
T2 construct: (208‐560, C300/315/334/448/478/510S); made in house
T2 sequence (Q93009 with tags, fused parts or gaps C300S/C315S/C334S/C478S/C488S/C510S): as the sequence (Q93009 with tags, fused parts or gaps) above, with C96S, C111S, C130S, C274S, C284S, C306S counted along it

[4] = biological target: T3, USP7asoc (active site only cysteine) (Homo sapiens, UniProt Q93009, C300S/C315S/C334S/C478S/C488S/C510S); assay: Differential scanning fluorimetry (DSF), melting temperature shift of USP7asoc mutant; assay type: binding; conditions: 8 µM protein, 250 µM compound (1:31.25)
T3 construct: (208‐560, C300/315/334/448/478/510S); made in house
T3 sequence (Q93009 with tags, fused parts or gaps C300S/C315S/C334S/C478S/C488S/C510S): as the sequence (Q93009 with tags, fused parts or gaps) above, with C96S, C111S, C130S, C274S, C284S, C306S counted along it
Protocol: USP7asoc only retains the catalytic Cys223 while all the other six cysteines are mutated to serine. DSF was selected for initial assessment since it is an efficient and rapid primary screening method readily available to our lab. […] An important consideration when assessing covalent inhibitors is the time dependence of covalent target occupancy and thus potency, which is determined by the reaction kinetics of the covalent binding event. To allow for drawing conclusions on compounds with slower reaction kinetics, incubation times of 30 min, 4 h, and 24 h at 20°C were chosen for the DSF screen with USP7 (Table 1 and Figures 2 and 3). The threshold at which compounds were considered (de‐)stabilizers was defined at 0.5°C. In parallel, the intrinsic reactivity of a set of representative compounds was evaluated in a glutathione reactivity assay. […] The expression and purification of USP7 catalytic domain (USP7CD) (208‐560) and USP7asoc (active site only cysteine) by using a pET24a(+)_HLT_USP7 construct were performed as previously described. […] For the USP7asoc, six of the seven cysteines are mutated to serines (208‐560, C300/315/334/448/478/510S). All utilized protein sequences are depicted in Supporting Information S2: Table S.3.1. The melting temperatures of USP7 and USP7asoc in the presence or absence of fragments were determined by DSF on a Qiagen Rotor‐Q Model‐5‐Plex HRM real‐time PCR instrument (Qiagen, Hilden, Germany). SYPRO Orange (Life Technologies Corporation, Eugene, OR, USA) was used as a fluorescent dye at a final concentration of 5x. The protein concentration was 8 µM, and the final compound concentration was 250 µM, corresponding to a protein‐to‐compound ratio of 1:31.25. All compounds were dissolved in dimethyl sulfoxide (DMSO) and the proteins in Tris buffer (25 mM Tris pH 8.0, 150 mM NaCl, 5 mM TCEP, 5% (v/v) DMSO). All measurements were performed after 30 min, 4 h, and 24 h of incubation and at least in triplicate. DSF experiments were carried out with a constant heating rate of 270°C/h. The temperature was ramped from 28°C to 60°C–70°C with excitation and emission filters set at 470 nm and 610 nm, respectively. The melting temperatures (T m) of USP7 and USP7asoc were determined from the maxima of the first derivatives of the melting curves in OriginPro2020 (OriginLab, Northampton, MA, USA). The ∆T m was calculated by subtraction of the T m of the protein sample with pure DMSO from the T m of the protein sample mixed with compound. Error propagation was used to average multiple runs for a compound. A compound was considered to be a hit if the shift in the ∆T m was at least 0.50°C [55].

[5] = biological target: T4, USP7cd (USP7 catalytic domain) (Homo sapiens, UniProt Q93009); assay: Ub-AMC enzyme activity assay, IC50 determination; assay type: biochemical; conditions: 10 nM USP7cd, 500 nM Ub-AMC, 24 h pre-incubation at 20°C
T4 construct: USP7 catalytic domain (USP7CD) (208‐560); made in house
T4 sequence (Q93009 with tags, fused parts or gaps): as the sequence (Q93009 with tags, fused parts or gaps) above
Protocol: Therefore, USP7 was incubated for 24 h with ten different compound concentrations, and IC50 values were then obtained with a fluorescent DUB substrate (Ub‐AMC) (Figure 9A–F). The pre‐incubation times were chosen to account for the slow covalent binding kinetics observed in the previous experiments.
The cleavage activity of USP7cd in the presence or absence of inhibitors was measured using Ubiquitin‐Aminomethylcoumarin (Ub‐AMC) (Enzo Life Sciences GmbH, Lörrach, Germany) as a fluorogenic substrate. The fluorescence was monitored using the CLARIOstar plate reader (BMG Labtech GmbH, Ortenberg, Germany) at 25°C at 360 nm excitation and 460 nm emission wavelengths. […] Each measurement was performed at least twice in duplicate. […] Ub‐AMC was added to a final concentration of 500 nM, and the fluorescence was measured after 1 h. The normalized dose‐response semi‐logarithmic curves were fitted using OriginPro2021 and the four‐parameter logistic function.
Different concentrations of compounds were pre-incubated with USP7 for 24 h at 20 °C in a rotating shaker in 25 mM Tris pH 8.0, 150mM NaCl, 5 mM TCEP supplemented with 0.2 mg/mL bovine serum albumin (BSA). Fluorescence was measured after 1 h of the addition of Ub-AMC. The dose response semi-logarithmic curves were fitted using OriginPro2021 and the four-parameter logistic function.

USP7 [6] = biological target: T1, USP7; assay: Differential scanning fluorimetry (DSF), melting temperature shift of USP7; assay type: binding; conditions: 8 µM protein, 250 µM compound (1:31.25)
Excerpt: The influence of the synthesized compounds on the melting temperature (T m) of USP7 and its mutant USP7asoc (active site only cysteine) was investigated by DSF. USP7asoc only retains the catalytic Cys223 while all the other six cysteines are mutated to serine. DSF was selected for initial assessment since it is an efficient and rapid primary screening method readily available to our lab.
An important consideration when assessing covalent inhibitors is the time dependence of covalent target occupancy and thus potency, which is determined by the reaction kinetics of the covalent binding event. To allow for drawing conclusions on compounds with slower reaction kinetics, incubation times of 30 min, 4 h, and 24 h at 20°C were chosen for the DSF screen with USP7 (Table 1 and Figures 2 and 3). The threshold at which compounds were considered (de‐)stabilizers was defined at 0.5°C. In parallel, the intrinsic reactivity of a set of representative compounds was evaluated in a glutathione reactivity assay. […] Data obtained from the GSH reactivity studies are shown in Supporting Information S2: Table S2.1 and Figures S2.1–2.3.
The melting temperatures of USP7 and USP7asoc in the presence or absence of fragments were determined by DSF on a Qiagen Rotor‐Q Model‐5‐Plex HRM real‐time PCR instrument (Qiagen, Hilden, Germany). SYPRO Orange (Life Technologies Corporation, Eugene, OR, USA) was used as a fluorescent dye at a final concentration of 5x. The protein concentration was 8 µM, and the final compound concentration was 250 µM, corresponding to a protein‐to‐compound ratio of 1:31.25. All compounds were dissolved in dimethyl sulfoxide (DMSO) and the proteins in Tris buffer (25 mM Tris pH 8.0, 150 mM NaCl, 5 mM TCEP, 5% (v/v) DMSO). All measurements were performed after 30 min, 4 h, and 24 h of incubation and at least in triplicate. DSF experiments were carried out with a constant heating rate of 270°C/h. The temperature was ramped from 28°C to 60°C–70°C with excitation and emission filters set at 470 nm and 610 nm, respectively. The melting temperatures (T m) of USP7 and USP7asoc were determined from the maxima of the first derivatives of the melting curves in OriginPro2020 (OriginLab, Northampton, MA, USA). The ∆T m was calculated by subtraction of the T m of the protein sample with pure DMSO from the T m of the protein sample mixed with compound. Error propagation was used to average multiple runs for a compound. A compound was considered to be a hit if the shift in the ∆T m was at least 0.50°C [55].

USP7asoc [7] = biological target: T2, USP7asoc; assay: Intact protein MS (UHPLC-ESI-MS), covalent modification of USP7asoc; assay type: binding; conditions: 24 h incubation at 20°C, protein-to-compound ratio 1:31.25
Protocol: The DSF results described above were validated by UHPLC‐ESI‐MS to verify possible covalent binding through a corresponding mass shift. Intact protein MS is an important screening method in irreversible‐covalent hit identification and is especially suitable for covalent fragment‐based drug discovery (FBDD). It allows for the identification of covalent binders by detecting covalent protein‐compound adducts, thus making use of the stability of the covalent bond. USP7 was prepared in Tris buffer (25 mM Tris pH 8.0, 150 mM NaCl, 5 mM TCEP) with a protein‐to‐compound ratio of 1:31.25 and 5% (v/v) DMSO. The protein‐compound mixtures were all incubated at 20°C for 24 h on a rotating shaker. The analysis of intact protein mass was carried out using UHPLC‐ESI‐MS measurements, with data acquisition and data analysis as previously described.

USP7 [8] = biological target: T1, USP7; assay: Intact protein MS (UHPLC-ESI-MS), covalent modification of USP7; assay type: binding; conditions: 24 h incubation at 20°C, protein-to-compound ratio 1:31.25
Protocol: The DSF results described above were validated by UHPLC‐ESI‐MS to verify possible covalent binding through a corresponding mass shift. Intact protein MS is an important screening method in irreversible‐covalent hit identification and is especially suitable for covalent fragment‐based drug discovery (FBDD). It allows for the identification of covalent binders by detecting covalent protein‐compound adducts, thus making use of the stability of the covalent bond.
USP7 was prepared in Tris buffer (25 mM Tris pH 8.0, 150 mM NaCl, 5 mM TCEP) with a protein‐to‐compound ratio of 1:31.25 and 5% (v/v) DMSO. The protein‐compound mixtures were all incubated at 20°C for 24 h on a rotating shaker. The analysis of intact protein mass was carried out using UHPLC‐ESI‐MS measurements, with data acquisition and data analysis as previously described.

Compound | temperature decrease with USP7 in DSF (USP7 [1]) | protein species in deconvoluted mass spectrum of USP7 (USP7 [2]) | protein species in deconvoluted mass spectrum of USP7asoc (USP7asoc [3]) | ∆T m ± SD USP7asoc ([4]; 30 min incubation at 20°C) | ∆T m ± SD USP7asoc ([4]; 4 h incubation at 20°C) | IC50 ([5]; read-out: IC50 USP7cd) | IC50 ([5]; supplement table, read-out: Biological Activity (IC50)) | ∆T m ± SD USP7 (USP7 [6]; 30 min incubation at 20°C) | ∆T m ± SD USP7 (USP7 [6]; 4 h incubation at 20°C) | ∆T m ± SD USP7asoc ([4]; 24 h incubation at 20°C) | ∆T m ± SD USP7 (USP7 [6]; 24 h incubation at 20°C) | protein species in deconvoluted mass spectrum of USP7asoc (USP7asoc [7]) | protein species in deconvoluted mass spectrum of USP7 (USP7 [8])
Cn1cc(-c2cccc3cnc(Nc4nc(F)ccc4[N+](=O)[O-])cc23)cn1 [7a, N‐(6‐Fluoro‐3‐nitropyridin‐2‐yl)‐5‐(1‐methyl‐1H‐pyrazol‐4‐yl)isoquinolin‐3‐amine] | –4 °C | mono‐arylated protein species as the main peak | single covalent modification as the main peak | –0.10 ± 0.09 °C | –0.25 ± 0.09 °C | 43.3 µM and 43 µM | 48.2 ± 6.89 µM | –0.13 ± 0.08 °C | –0.23 ± 0.06 °C |  |  |  | 
Cn1cc(-c2cccc3cnc(Nc4nc(Cl)ccc4[N+](=O)[O-])cc23)cn1 [8a, N‐(6‐Chloro‐3‐nitropyridin‐2‐yl)‐5‐(1‐methyl‐1H‐pyrazol‐4‐yl)isoquinolin‐3‐amine] |  | unmodified and mono‐arylated protein species were visible with nearly the same intensity | unmodified protein species as the main peak | 0.10 ± 0.27 °C | 0.10 ± 0.09 °C |  |  | 0.20 ± 0.09 °C | 0.45 ± 0 °C | 0.10 ± 0.09 °C | 0.20 ± 0.09 °C |  | 
O=[N+]([O-])c1ccc(Cl)nc1Nc1cc2c(-c3ccc4ccccc4c3)cccc2cn1 [8g, N‐(6‐Chloro‐3‐nitropyridin‐2‐yl)‐5‐(naphthalen‐2‐yl)isoquinolin‐3‐amine] |  |  |  | 0.63 °C and 0.63 ± 0.07 °C | 0.38 ± 0.08 °C |  |  | 0.25 ± 0.12 °C | 0.30 ± 0 °C | 0.40 ± 0.17 °C | 0.25 ± 0.09 °C | only unmodified USP7 and USP7asoc were detected | only unmodified USP7 and USP7asoc were detected
O=[N+]([O-])c1ccc(Cl)nc1Nc1cc2c(-c3ccc(-c4cccnc4)cc3)cccc2cn1 [8h, N‐(6‐Chloro‐3‐nitropyridin‐2‐yl)‐5‐[4‐(pyridin‐3‐yl)phenyl]isoquinolin‐3‐amine] |  |  |  | 0.15 ± 0 °C | 0.35 ± 0.09 °C |  |  | –0.25 ± 0.09 °C | 0.00 ± 0 °C | 0.28 ± 0.04 °C | 0.05 ± 0.09 °C | unmodified USP7 and USP7asoc as the main peak | unmodified USP7 and USP7asoc as the main peak
O=[N+]([O-])c1ccc(Cl)nc1Nc1cc2c(-c3ccc(-c4ccncc4)cc3)cccc2cn1 [8i, N‐(6‐Chloro‐3‐nitropyridin‐2‐yl)‐5‐[4‐(pyridin‐4‐yl)phenyl]isoquinolin‐3‐amine] |  |  |  | 0.10 ± 0.17 °C | –0.15 ± 0.15 °C |  |  | 0.05 ± 0.09 °C |  | –0.15 ± 0.12 °C | –0.03 ± 0.11 °C | unmodified USP7 and USP7asoc as the main peak | unmodified USP7 and USP7asoc as the main peak
